This is an account of results in patent US20090005364A1, “Azole Derivatives With Antimuscarinic Activity” (priority 2004, published 2009).

A word on the pKi: it is −log10 of the Ki, conventionally taken in molar units.

pKi: −log10 of the molar value.

T1 sequence (P20309 whole entry): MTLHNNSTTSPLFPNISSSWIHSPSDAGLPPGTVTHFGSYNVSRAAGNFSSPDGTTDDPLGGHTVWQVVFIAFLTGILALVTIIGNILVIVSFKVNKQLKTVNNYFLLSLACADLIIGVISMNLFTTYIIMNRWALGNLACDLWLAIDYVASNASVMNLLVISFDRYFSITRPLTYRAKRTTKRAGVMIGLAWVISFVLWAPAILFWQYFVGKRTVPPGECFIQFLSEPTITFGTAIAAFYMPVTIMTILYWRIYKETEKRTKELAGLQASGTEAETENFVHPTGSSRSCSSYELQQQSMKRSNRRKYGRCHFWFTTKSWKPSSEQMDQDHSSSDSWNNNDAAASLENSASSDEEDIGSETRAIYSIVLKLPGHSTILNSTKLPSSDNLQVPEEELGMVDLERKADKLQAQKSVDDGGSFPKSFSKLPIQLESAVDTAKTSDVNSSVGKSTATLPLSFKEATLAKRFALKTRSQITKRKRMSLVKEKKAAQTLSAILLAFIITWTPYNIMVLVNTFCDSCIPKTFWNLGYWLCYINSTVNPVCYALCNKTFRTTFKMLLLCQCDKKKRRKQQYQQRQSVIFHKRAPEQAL

One assay concerns the target T1, human M3-receptors (Homo sapiens, UniProt P20309).
T1 construct: expressed in transfected cells; host or cells: CHO-K1 clone cells; crude membrane fraction
Put plainly: radioligand binding assay, M3 receptor ([3H]-N-methyl scopolamine). The following applies: membranes of CHO-K1 cells expressing human M3; [3H]-N-methyl scopolamine 0.1-0.3 nM; 90 min, room temperature. The procedure: (§1) Cell Lines and Membrane Preparations
(§2) CHO—K1 clone cells expressing the human M1, M2 or M3-receptors (Swissprot P11229, P08172, P20309 respectively) were harvested in Ca^++/Mg^++ free phosphate-buffered saline and collected by centrifugation at 1500 rpm for 3 min. The pellets were resuspended in ice cold buffer A (15 mM Tris-HCl pH 7.4, 2 mM MgCl2, 0.3 mM EDTA, 1 mM EGTA) and homogenized by a PBI politron (setting 5 for 15 s).
(§3) Radioligand Binding Conditions
(§4) The day of experiment, frozen membranes were resuspended in buffer C (50 mM Tris-HCl pH 7.4, 2.5 mM MgCl2, 1 mM EDTA). […] The non specific binding was determined in the presence of cold N-methyl scopolamine 10 μM. Samples (final volume 0.75 ml) were incubated at room temperature for 120 min for Ml, 60 min for M2 and 90 min for M3 binding assay. The reaction was terminated by rapid filtration through GF/B Unifilter plates and two washes (0.75 ml) with cold buffer C using a Packard Filtermate Harvester. Radioactivity on the filters was measured by a microplate scintillation counter TopCount NXT (Camberra Packard).
In turn, `C[N+]1(CC(=O)c2cccs2)CC[C@@H](N2CC(c3ccc(F)cc3)(c3ccc(F)cc3)NC2=O)C1` (some centres unmarked) [Compound 19bq] had a pKi of 8.79.

`C[N+]1(CC(=O)c2cccs2)CC[C@@H](N2CC(c3ccc(F)cc3)(c3ccc(F)cc3)NC2=O)C1` (some centres unmarked) [Compound 19bp] showed a pKi of 8.71.

The next assay addresses T2, human M2-receptors (Homo sapiens, UniProt P08172).
T2 construct: expressed in transfected cells; host or cells: CHO-K1 clone cells; crude membrane fraction
T2 sequence (P08172 1-466): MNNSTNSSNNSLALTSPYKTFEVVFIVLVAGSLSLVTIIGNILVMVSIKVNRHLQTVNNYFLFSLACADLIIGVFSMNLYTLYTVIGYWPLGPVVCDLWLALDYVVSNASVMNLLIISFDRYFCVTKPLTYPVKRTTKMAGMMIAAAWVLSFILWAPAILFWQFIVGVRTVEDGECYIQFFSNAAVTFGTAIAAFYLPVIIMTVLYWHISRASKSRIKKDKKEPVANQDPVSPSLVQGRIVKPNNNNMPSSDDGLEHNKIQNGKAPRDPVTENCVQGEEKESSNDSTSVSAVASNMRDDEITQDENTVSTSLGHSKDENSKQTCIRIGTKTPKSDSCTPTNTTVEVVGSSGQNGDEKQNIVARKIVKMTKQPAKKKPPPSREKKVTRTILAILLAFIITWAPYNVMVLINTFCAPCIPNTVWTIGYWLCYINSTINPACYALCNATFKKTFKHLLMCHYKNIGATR
Briefly: radioligand binding assay, M2 receptor ([3H]-N-methyl scopolamine). The following applies: membranes of CHO-K1 cells expressing human M2; [3H]-N-methyl scopolamine 0.1-0.3 nM; 60 min, room temperature. The procedure:
as §1, §2, §3, §4
In the case of `O=C1NC(c2ccccc2)(c2ccccc2)CN1C1CCN(Cc2ccccc2)CC1` [Compound 27a, 3-(1-benzyl-piperidin-4-yl)-5 5-diphenyl-imidazolidin-2-one], the pKi is 7.10.

The compound `Cc1cccc(CN2CCC(N3CC(c4cccs4)(c4cccs4)NC3=O)CC2)c1` [Compound 18ag] showed a pKi of 6.97.

Take `O=C1NC(c2ccccc2)(C2CCCCC2)CN1C1CCN(Cc2ccccc2)CC1` (centres unmarked) [Compound 27c]: the pKi is 7.13.

Consider `O=C1NC(c2ccccc2)(c2ccccc2)CN1C1CCN(Cc2cccc(Cl)c2)CC1` [Compound 18e], for which the pKi was 6.49.

Compound `O=C1NC(c2cccs2)(c2cccs2)CN1C1CCN(Cc2cccc(F)c2)CC1` [Compound 18ad] had a pKi of 6.73.

As to `C[N+]1(CC(=O)c2cccs2)CC[C@@H](N2CC(c3ccc(F)cc3)(c3ccc(F)cc3)NC2=O)C1` (some centres unmarked) [Compound 19bq], the pKi was 7.05.

On to `O=C1NC(c2ccc(F)cc2)(c2ccc(F)cc2)CN1C1CCN(Cc2ccccc2)CC1` [Compound 27h], for which the pKi was 6.69.

`Cc1cccc(CN2CCC(N3CC(c4ccccc4)(c4ccccc4)NC3=O)CC2)c1` [Compound 18i] gave a pKi of 6.65.

`O=C1NC(c2ccc(F)cc2)(c2ccc(F)cc2)CN1C1CCN(Cc2cccc(Cl)c2)CC1` [Compound 18ab]: the pKi was 6.02.

In turn, `O=C1NC(c2cccs2)(c2cccs2)CN1C1CCN(Cc2ccccc2)CC1` [Compound 27i] gave a pKi of 7.01.

On to `O=C1NC(c2ccc(F)cc2)(c2ccc(F)cc2)CN1C1CCN(Cc2cccc(F)c2)CC1` [Compound 18an], for which the negative logarithm of the Ki (pKi) is 5.94.

`C[N+]1(CC(=O)c2cccs2)CC[C@@H](N2CC(c3ccc(F)cc3)(c3ccc(F)cc3)NC2=O)C1` (some centres unmarked) [Compound 19bp] gave a pKi of 7.09.
